Measured values published in the supplement of paper PMC10307832.

compound: O=C(O)C(Cc1ccccc1[N+](=O)[O-])=NNc1nc(-c2ccc(Cl)c(Cl)c2)cs1 (mixture of isomers) [4EGI-1] + O=C(CCCCCCC(=O)Nc1ccccc1)NO [Vorinostat] (partner 1 µM); experiment: relative viability (nuclei count vs DMSO), 5 days (fraction); higher = more cells survive; settings: first compound 0.5 µM
Method in brief: (§1)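 Nuclei were stained with Hoechst during a one-step fixation (final 0.05% Triton X-100, 1% formaldehyde, 1 ug/ml Hoechst) carried out 5 days after dosing, then counted on 4× images. The cells, lung cancer lines in 1536-well plates, had been dosed by pin tool the day after seeding with one drug alone or a fixed anchor-drug dose plus five library-drug doses (not always all listed) in √10 steps. Relative viability is the nuclei count in treated wells divided by that in vehicle wells, and each value is the median of duplicate plates.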

Cell Line | relative viability
EPLC-272H | 0.563
H3255 | 0.792
HARA | 0.545
HCC-15 | 0.863
HCC-44 | 1.06
HCC-78 | 0.579
HCC-366 | 0.469
HCC-827 | 0.785
HOP-62 | 0.65
IA-LM | 1.04
LC-2-ad | 0.736
LCLC-97TM1 | 0.78
LCLC-103H | 0.619
LK-2 | 0.314
NCI-H358 | 0.609
NCI-H522 | 0.812
NCI-H727 | 1.13
NCI-H1395 | 0.833
NCI-H1648 | 1.18
NCI-H1793 | 1.03
NCI-H1944 | 0.611
NCI-H2170 | 0.936
NCI-H2342 | 0.765
SK-MES-1 | 1.09
SW 900 | 0.615

same assay, conditions: first compound 1.581 µM

Cell Line | relative viability
201T | 1.03
BEN | 0.599
COR-L23 | 0.261
COR-L 105 | 0.672
ChaGo-K-1 | 0.61
EKVX | 0.746
EPLC-272H | 0.493
HARA | 0.429
HCC-15 | 0.812
HCC-44 | 0.872
HCC-366 | 0.149
HCC-827 | 0.698
HOP-62 | 0.346
IA-LM | 0.91
LC-2-ad | 0.62
LCLC-103H | 0.75
LK-2 | 0.174
NCI-H358 | 0.613
NCI-H522 | 0.903
NCI-H727 | 0.94
NCI-H1648 | 0.388
NCI-H1793 | 0.823
NCI-H2170 | 0.749
NCI-H2342 | 0.664
SK-MES-1 | 0.938
SW 900 | 0.59

same assay, conditions: first compound 5 µM

Cell Line | relative viability
201T | 1.07
A-427 | 0.882
ABC-1 | 1.35
BEN | 0.589
CAL-12T | 0.95
COR-L23 | 0.618
COR-L 105 | 0.777
ChaGo-K-1 | 0.796
EKVX | 0.759
EMC-BAC-2 | 0.634
EPLC-272H | 0.337
H3255 | 0.77
HARA | 0.525
HCC-15 | 0.809
HCC-44 | 0.988
HCC-78 | 0.435
HCC-366 | 0.431
HCC-827 | 0.902

Cell Line | relative viability
HOP-62 | 0.715
IA-LM | 0.871
LC-2-ad | 0.617
LCLC-97TM1 | 0.856
LCLC-103H | 0.851
LK-2 | 0.337
NCI-H358 | 0.663
NCI-H522 | 0.954
NCI-H727 | 1.22
NCI-H1395 | 0.858
NCI-H1648 | 0.351
NCI-H1793 | 0.999
NCI-H1944 | 0.603
NCI-H2170 | 0.842
NCI-H2342 | 0.833
SK-MES-1 | 1.1
SW 900 | 0.503

same assay, conditions: first compound 15.81 µM

Cell Line | relative viability
201T | 0.852
A-427 | 0.646
ABC-1 | 0.439
BEN | 0.557
CAL-12T | 0.759
COR-L23 | 0.345
COR-L 105 | 0.699
ChaGo-K-1 | 0.781
EKVX | 0.309
EMC-BAC-2 | 0.318
EPLC-272H | 0.295
HARA | 0.47
HCC-15 | 0.686
HCC-44 | 0.916
HCC-78 | 0.443
HCC-366 | 0.34
HOP-62 | 0.616

Cell Line | relative viability
IA-LM | 0.698
LC-2-ad | 0.356
LCLC-97TM1 | 0.843
LCLC-103H | 0.746
LK-2 | 0.354
NCI-H358 | 0.319
NCI-H522 | 1.03
NCI-H727 | 1.04
NCI-H1395 | 0.669
NCI-H1648 | 0.414
NCI-H1793 | 0.516
NCI-H1944 | 0.489
NCI-H2170 | 0.699
NCI-H2342 | 0.835
SK-MES-1 | 0.728
SW 900 | 0.314

same assay, conditions: first compound 50 µM

Cell Line | relative viability
201T | 0.559
A-427 | 0.2
ABC-1 | 0.284
BEN | 0.442
CAL-12T | 0.67
COR-L23 | 0.103
COR-L 105 | 0.592
ChaGo-K-1 | 0.347
EKVX | 0.203
EMC-BAC-2 | 0.168
EPLC-272H | 0.12
H3255 | 0.735
HARA | 0.127
HCC-15 | 0.513
HCC-44 | 0.566
HCC-78 | 0.451
HCC-366 | 0.0704
HCC-827 | 0.274

Cell Line | relative viability
HOP-62 | 0.104
IA-LM | 0.261
LC-2-ad | 0.207
LCLC-97TM1 | 0.0947
LCLC-103H | 0.282
LK-2 | 0.236
NCI-H358 | 0.0967
NCI-H522 | 0.634
NCI-H727 | 0.714
NCI-H1395 | 0.397
NCI-H1648 | 0.474
NCI-H1793 | 0.353
NCI-H1944 | 0.418
NCI-H2170 | 0.585
NCI-H2342 | 0.712
SK-MES-1 | 0.228
SW 900 | 0.15

compound: CN1CCN(CC1)C2=CC(=C(C=C2)NC3=NC=C4C(=N3)N(C5=CC=CC=C5C(=O)N4C)C)OC [XMD8-85] + Nc1nc2[nH]cc(CCc3ccc(C(=O)N[C@@H](CCC(=O)O)C(=O)O)cc3)c2c(=O)[nH]1 [Pemetrexed] (partner 0.2 µM); experiment: as above; settings: first compound 0.08 µM
Method in brief: as §1

Cell Line | relative viability
201T | 0.329
A-427 | 1.09
BEN | 0.811
